From patent US9708314B2, “Heterocyclic amide compound” (NISSAN CHEMICAL INDUSTRIES, LTD., priority 2013, dated 2017)

Legend:
Type in all cases: in vivo
Scirpus juncoides = test: Test Example 1: herbicidal activity, application before weed generation in submerged conditions; conditions: Seventeenth Table
Procedure, shortened: (§1)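 Pre-emergence application to water surface of submerged pots (4 cm depth, alluvial soil) on sowing day, with 2.5-leaf rice transplanted; emulsion diluted to g/ha rates. Grown in greenhouse at 25–30 °C; 0–5 herbicidal/crop-effect score after three weeks.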

Monochoria vaginalis = test: as above; conditions: Application herbicide amount 320 g/ha; Seventeenth Table
Procedure, shortened: as §1

[1] = system: Echinochloa oryzacola Vasing.; test: as above; conditions: Seventeenth Table; for A: Echinochloa oryzicola Vasing. (herbicidal effect grade): Application herbicide amount 320 g/ha
Procedure, shortened: as §1

Alopecurus myosuroides = test: Test Example 4: herbicidal effect by application to foliage (diluvial soil, plastic box); conditions: for J (Alopecurus myosuroides) herbicidal effect grade: foliage application, 320 g/ha
Procedure, shortened: (§2)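 Plants were grown in sterilized diluvial soil in a greenhouse at 25-30° C for 14 days, then sprayed on stems and leaves with water-diluted emulsion formulation at set rates in g/ha. Weed control and crop injury were scored 3 weeks after treatment on a 0-5 herbicidal-ratio scale, from 0 (≤5%) to 5 (≥90%).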

Stellaria media = test: as above; conditions: for P (Stellaria media) herbicidal effect grade: foliage application, 320 g/ha
Procedure, shortened: as §2

Lolium multiflorum Lam. = test: as above; conditions: for K (Lolium multiflorum Lam.) herbicidal effect grade: foliage application, 320 g/ha
Procedure, shortened: as §2

Setaria viridis = test: as above; conditions: for G (Setaria viridis) herbicidal effect grade: foliage application, 320 g/ha
Procedure, shortened: as §2

Amaranthus retroflexus = test: as above; conditions: for N (Amaranthus retroflexus) herbicidal effect grade: foliage application, 320 g/ha
Procedure, shortened: as §2

Digitaria ciliaris = test: as above; conditions: for F (Digitaria ciliaris) herbicidal effect grade: foliage application, 320 g/ha
Procedure, shortened: as §2

[2] = application to foliage, application herbicide amount 320 g/ha
[3] = application herbicide amount 260 g/ha
[4] = application to foliage, 256 g/ha

| SMILES | C: Monochoria vaginalis (herbicidal effect grade) (Monochoria vaginalis) | A: Echinochloa oryzicola Vasing. (herbicidal effect grade) [1] | J (Alopecurus myosuroides) herbicidal effect grade (Alopecurus myosuroides) | P (Stellaria media) herbicidal effect grade (Stellaria media) | K (Lolium multiflorum Lam.) herbicidal effect grade (Lolium multiflorum Lam.) | G (Setaria viridis) herbicidal effect grade (Setaria viridis) | N (Amaranthus retroflexus) herbicidal effect grade (Amaranthus retroflexus) | F (Digitaria ciliaris) herbicidal effect grade (Digitaria ciliaris) | further results |
| --- | --- | --- | --- | --- | --- | --- | --- | --- | --- |
| COc1ccc(N(C)c2nnc3c(C(=O)Nc4nnco4)ccc(C(F)(F)F)n23)cc1 [1-171] | 4 (Herbicidal ratio of 70% or more and less than 90%) | 5 (Herbicidal ratio of 90% or more (almost completely withered)) | – | – | – | – | – | – | B: Scirpus juncoides (herbicidal effect grade) (Scirpus juncoides; Application herbicide amount 320 g/ha): 4 (Herbicidal ratio of 70% or more and less than 90%); J: herbicidal effect on Alopecurus myosuroides (Alopecurus myosuroides; [2]): 0 (Herbicidal ratio of 5% or less (almost no effect)); P: herbicidal effect on Stellaria media (Stellaria media; [2]): 5 (Herbicidal ratio of 90% or more (almost completely withered)); K: herbicidal effect on Lolium multiflorum Lam. (Lolium multiflorum Lam.; [2]): 0 (Herbicidal ratio of 5% or less (almost no effect)); G: herbicidal effect on Setaria viridis (Setaria viridis; [2]): 3 (Herbicidal ratio of 40% or more and less than 70%); N: herbicidal effect on Amaranthus retroflexus (Amaranthus retroflexus; [2]): 4 (Herbicidal ratio of 70% or more and less than 90%); F: herbicidal effect on Digitaria ciliaris (Digitaria ciliaris; [2]): 3 (Herbicidal ratio of 40% or more and less than 70%) |
| COc1cc(OC)cc(-c2nnc3c(C(=O)Nc4nnnn4C)ccc(C(F)(F)F)n23)c1 [2-063] | 5 (Herbicidal ratio of 90% or more (almost completely withered)) | 5 (Herbicidal ratio of 90% or more (almost completely withered)) | 3 (Herbicidal ratio of 40% or more and less than 70%) | 5 (Herbicidal ratio of 90% or more (almost completely withered)) | 3 (Herbicidal ratio of 40% or more and less than 70%) | 5 (Herbicidal ratio of 90% or more (almost completely withered)) | 5 (Herbicidal ratio of 90% or more (almost completely withered)) | 5 (Herbicidal ratio of 90% or more (almost completely withered)) | – |
| Cn1nnnc1NC(=O)c1ccc(C(F)(F)F)n2c(-c3cc(Cl)cc(Cl)c3)nnc12 [2-064] | 2 (Herbicidal ratio of 20% or more and less than 40%) | 5 (Herbicidal ratio of 90% or more (almost completely withered)) | 0 (Herbicidal ratio of 5% or less (almost no effect)) | 5 (Herbicidal ratio of 90% or more (almost completely withered)) | 0 (Herbicidal ratio of 5% or less (almost no effect)) | 2 (Herbicidal ratio of 20% or more and less than 40%) | 5 (Herbicidal ratio of 90% or more (almost completely withered)) | 3 (Herbicidal ratio of 40% or more and less than 70%) | – |
| Cn1nnnc1NC(=O)c1ccc(C(F)(F)F)n2c(C=O)nnc12 [2-109] | – | – | – | – | – | – | – | – | B (Scirpus juncoides) herbicidal ratio grade (Scirpus juncoides; [3]): 3 (Herbicidal ratio of 40% or more and less than 70%); A (Echinochloa oryzicola Vasing.) herbicidal ratio grade [1, 3]: 2 (Herbicidal ratio of 20% or more and less than 40%); herbicidal effect, J (Alopecurus myosuroides) (Alopecurus myosuroides; [4]): 0 (Herbicidal ratio of 5% or less (almost no effect)); herbicidal effect, P (Stellaria media) (Stellaria media; [4]): 5 (Herbicidal ratio of 90% or more (almost completely withered)); herbicidal effect, K (Lolium multiflorum Lam.) (Lolium multiflorum Lam.; [4]): 1 (Herbicidal ratio of 5% or more and less than 20%); herbicidal effect, G (Setaria viridis) (Setaria viridis; [4]): 2 (Herbicidal ratio of 20% or more and less than 40%); herbicidal effect, N (Amaranthus retroflexus) (Amaranthus retroflexus; [4]): 5 (Herbicidal ratio of 90% or more (almost completely withered)); herbicidal effect, F (Digitaria ciliaris) (Digitaria ciliaris; [4]): 3 (Herbicidal ratio of 40% or more and less than 70%) |
